{"source": "patent US6893654B2", "about": "“Two-stage transmucosal medicine delivery system for symptom relief” (priority 1998, dated 2005)", "details": "solution at pH 8.0", "data": [{"smiles": "CN1CCCC1c1cccnc1", "note": "(stereo not shown) [nicotine]", "values": [{"measurement": "portion of nicotine unionized and free to be absorbed", "result": "fifty"}]}]}
